Measured values as given in US20120100157A1, “Biomarker and Method for Predicting Sensitivity to MET Inhibitors” (Van Andel Research Institute, priority 2010, published 2012).

Tests used:
[1] = system: U251M2, T98G, and DBM2 cells; assay: HGF- and EGF-induced uPA activity in GBM cells without autocrine HGF; type: cell-based, human; conditions: for cross inhibition between MET and EGFR pathways (uPA activity): early time point in vitro
Method: (§1) Cells were grown overnight in DMEM/10% FBS. Drugs were dissolved in DMSO and serially diluted from stock concentrations into DMEM/10% FBS medium and added to the appropriate wells. Immediately after drug or reagent addition, HGF/SF (60 ng/ml) was added to all wells (with the exception of wells used as controls to calculate basal growth and uPA-plasmin activity levels). Twenty-four hours after drug and HGF/SF addition, plates were processed for the determination of plasmin activity as described previously (22). Wells were washed twice with DMEM (without phenol red; Life Technologies, Inc.), and 200 μl of reaction buffer [50% (v/v) 0.05 units/ml plasminogen in DMEM (without phenol red), 40% (v/v) 50 mM Tris buffer (pH 8.2), and 10% (v/v) 3 mM Chromozyme PL (Boehringer Mannheim) in 100 mM glycine solution] was added to each well. The plates were then incubated at 37° C., 5% CO2, for 4 h, at which time the absorbance was read on an automated spectrophotometric plate reader at the single wavelength of 405 nm.

U87M2 [2] = assay: In vivo SGX523 and erlotinib therapeutic efficacy study, U87M2 xenograft; set-up: species or system mice
Method: (§2) All animal studies were approved by the IACUC of the Van Andel Research Institute. Each GBM cell line (5×10^5 cells in 100 μl PBS) was inoculated into both SCID and SCIDhgf mice subcutaneously. For V13 tumor line, tumors were transplanted into SCIDhgf mice at the flank to initiate tumor growth. Tumor size was measured with a caliper twice a week. When average tumor size reached 100 mm^3, mice were grouped (n=10) for treatment as indicated. Dosing with SGX523 and/or erlotinib was delivered once daily by oral gavage for 3 weeks. Vehicles used were 0.5% MC 400 with 0.05% Tween 80 (SGX523) and 0.5% (w/v) methyl cellulose (erlotinib). Tumor size was measured by a caliper twice a week. Body weight was measured once a week. All mice were sacrificed 24 h after last dose. To determine the effectiveness of treatment, the average tumor size of each group from the last measurement was analyzed with Student's t test (α=0.05).

U251M2 = assay: In vivo SGX523 and erlotinib therapeutic efficacy study, U251M2 xenograft; set-up: species or system mice; conditions: for tumor sensitivity to single agent: either drug alone
Method: as §2

DBM2 = assay: In vivo SGX523 and erlotinib therapeutic efficacy study, DBM2 xenograft; set-up: species or system mice
Method: as §2

X01-GB = assay: In vivo efficacy study, X01-GB GBM stem cell tumors; set-up: species or system mice; conditions: for tumor response: X01-GB tumors, erlotinib at 75 mg/kg
Method: as §2

V13 = assay: In vivo efficacy study, V13 GBM patient-derived xenograft; set-up: species or system mice; conditions: for tumor response: V13 in SCIDhgf mice, Erlotinib at 75 mg/kg
Method: The V13 GBM xenograft tumor line was generated from the primary tumor of a GBM patient upon surgical removal. The fresh tumor specimen was split into two pieces, one to be divided and implanted into 5 nude mice to propagate tumor growth and another piece to be directly digested with 0.05% trypin into single cells and grown in Neuro-basal medium with 10% FBS supplemented with EGF (20 ng/ml), bFGF (20 ng/ml) and 1% penicillin and streptomycin at 37° C. The tumors growing from nude mice were analyzed using FISH to compare them with the original tumor and were further transplanted into the host nude mice to maintain tumor growth in vivo. All studies involving human subjects and human tissues were approved by IRB committee of Van Andel Research Institute.
as §2

U87M2 [3] = assay: Serum HGF ELISA, U87M2 tumor-bearing mice; type: in vivo; conditions: end of efficacy study, mean ± SD
Method: (§3) At the end of the efficacy study, mouse serum was collected from each group and kept at −80° C. until use. For HGF expression level, 50 μl of serum was used for an ELISA test (R&D) according to the kit instructions. At least five samples were tested. Data represent mean±SD. Student's t test was used for statistical analysis.

SF295 SQ1 = assay: Serum HGF ELISA, SF295 SQ1 tumor-bearing mice; type: in vivo; conditions: end of efficacy study, mean ± SD
Method: as §3

U118 [4] = assay: Serum HGF ELISA, U118 tumor-bearing mice; type: in vivo; conditions: end of efficacy study, mean ± SD
Method: as §3

U87M2 cells [5] = assay: uPA activity in HGF-autocrine U87M2 cells; type: cell-based, human; conditions: even when stimulated by EGF
Method: as §1

DBM2 cells = assay: HGF/EGF-induced downstream signaling, Western blot, DBM2; type: cell-based, human
Method: (§4) Cells were seeded in 10-cm dishes and grown until 80% confluent. After serum starvation overnight, cells were treated with or without SGX523 for 4 h with (or without) human HGF/SF or EGF (100 ng/ml) for 20 minutes at 37° C. The cells were washed twice with ice-cold 1×PBS, and whole cell lysates were prepared using RIPA buffer. The protein concentrations were determined by DC protein assay. Equal amounts of total protein (30 μg) from cell lysates were loaded on a 4-20% SDS-PAGE gel (invitrogen), transferred to a polyvinylidene difluoride (PVDF) membrane (Invitrogen), and detected using an ECL Western Blotting Detection System (GE Healthcare). Antibodies used were human Met (clone 25H2,), phospho-Met (Y1234/1235), human EGFR (clone D38B1), phosphor-EGFR(Y1068), AKT, phospho-AKT (S473), p42/44 MAPK, phospho-p42/44 MAPK (T202/Y204) (all from Cell Signaling Technology); β-actin (clone AC-15, Abcam); and anti-HGFantibody (Clone 7-2, provided by Dr. Brian Cao at Van Andel Research Institute). Secondary antibodies used were goat anti-rabbit IgG-HRP and goat anti-mouse IgG-HRP (Santa Cruz Biotechnology).

U87M2 cells [6] = assay: HGF/EGF-induced downstream signaling, Western blot, U87M2; type: cell-based, human; conditions: 1-10 μM, regardless of additional HGF or EGF stimulation
Method: as §4

U118 [7] = assay: In vivo SGX523 and erlotinib therapeutic efficacy study, U118 xenograft; set-up: species or system mice; conditions: U118 subcutaneous; P<0.05 at all three doses
Method: as §2

SF295SQ1 = assay: In vivo SGX523 and erlotinib therapeutic efficacy study, SF295SQ1 xenograft; set-up: species or system mice; conditions: SF295SQ1 subcutaneous; P<0.05 at all three doses
Method: as §2

GBM = conditions: phase II clinical trials; cited from earlier work
recurrent GBM = conditions: clinical trials against recurrent GBM; cited from earlier work

| Compound | cross inhibition between MET and EGFR pathways (uPA activity) [1] | tumor sensitivity to single agent (U251M2) | tumor response (X01-GB) | tumor response (V13) | Serum HGF concentration (U87M2 [3]; U87M2, SCID mice) | Serum HGF concentration (U87M2 [3]; U87M2, SCIDhgf mice) [pg/mL] | Serum HGF concentration (SF295 SQ1; SF295 SQ1, SCID mice) | Serum HGF concentration (SF295 SQ1; SF295 SQ1, SCIDhgf mice) [pg/mL] | Serum HGF concentration (U118 [4]; U118, SCID mice) | Serum HGF concentration (U118 [4]; U118, SCIDhgf mice) [pg/mL] | further results |
| --- | --- | --- | --- | --- | --- | --- | --- | --- | --- | --- | --- |
| C#Cc1cccc(Nc2ncnc3cc(OCCOC)c(OCCOC)cc23)c1 [Erlotinib, erlotinib] | no evidence of cross inhibition | tolerate | very sensitive | induced tumor regression | 1277 ± 679 pg/mL | 8233 ± 3311 | 858 ± 670 ^ pg/ml | 4000 ± 1132 | 348.7 ± 172^ pg/ml | 2940 ± 746 | inhibition of EGF-induced uPA activity ([1]; within 24 hrs, U251M2, T98G, DBM2 cells): specifically blocked; prolonged inhibition of U87M2 tumor growth (U87M2 [2]; FIG. 7: SGX523 90 or 120 mg/kg, erlotinib 150 mg/kg, p<0.05 for combination): failed; tumor sensitivity to single agent (DBM2): somewhat sensitive; p-EGFR in tumor lysates (X01-GB; X01-GB, Western blot with tumor lysates): significantly reduced; p-EGFR expression in tumor lysates (V13; V13, Western blot with tumor lysates): significantly reduced |
| Cn1cc(-c2ccc3nnc(Sc4ccc5ncccc5c4)n3n2)cn1 [SGX523] | no evidence of cross inhibition | tolerate | do not respond | no response | 152 ± 85 ^4 pg/ml | 6330 ± 2240 | 262 ± 138 ^4 pg/ml | 4214 ± 1084 | 91 ± 85 ^5, 6 pg/ml | 4149 ± 1264 | inhibition of HGF-induced uPA activity ([1]; SGX523 at 0.1 μM after 24 h, U251M2, T98G, DBM2 cells): inhibited HGF-induced uPA activity; inhibition of basal level of uPA activity (U87M2 cells [5]): did inhibit the basal level of uPA activity; inhibition of EGF induced p-EGFR (DBM2 cells): did not inhibit; inhibition of p-Met and downstream MAPK and AKT pathways (U87M2 cells [6]): can inhibit p-Met and downstream MAPK and AKT pathways; tumor regrowth under continuous dosing (U87M2 [2]; U87M2, continuous dosing with SGX523): start to grow back after 2 weeks; tumor regression (U87M2 [2]; U87M2, first week after treatment started): induces U87M2 tumor regression; xenograft tumor sensitivity (U87M2 [2]; U87M2 subcutaneous, P<0.05 at all three doses): sensitive to SGX523 in a dose-dependent manner; xenograft tumor sensitivity (U118 [7]): sensitive to SGX523 in a dose-dependent manner; xenograft tumor sensitivity (SF295SQ1): sensitive to SGX523 in a dose-dependent manner; tumor growth response at increased dose (U251M2; 120 mg/kg): did not improve the responsive; tumor growth response (U251M2; SGX523 60 mg/kg): no response; tumor growth response (DBM2; SGX523 60 mg/kg): no response |
| COc1cc2nccc(Oc3ccc(NC(=O)C4(C(=O)Nc5ccc(F)cc5)CC4)cc3)c2cc1OC [XL184] | – | – | – | – | – | – | – | – | – | – | clinical efficacy (GBM): promising efficacy |
| AMG102: a neutralizing antibody against HGF | – | – | – | – | – | – | – | – | – | – | clinical outcome (recurrent GBM): failed in clinical trials |
